In PMC11310889, “Ribosomal translation of fluorinated non-canonical amino acids for de novo biologically active fluorinated macrocyclic peptides” (Chemical Science, 2024):

Key:
E. coli W3110 [1] = experiment: Propidium iodide (PI) assay of membrane permeability; type: cell-based, Escherichia coli; conditions: E. coli W3110 logarithmic-phase, 15 min treatment with 5 μM peptide, PI 25 μg/mL 15 min (Fig. 5A)
Experimental: Propidium Iodide (PI) assay
Thaw the previously preserved E. coli W3110 cells from the -80 °C freezer. Scrape a small amount and inoculate it into 1 mL of LB liquid medium. Culture overnight in a 37°C shaker. Next day, inoculate the strain into fresh LB liquid medium at a 1:100 ratio and incubate at 37 °C until the OD600 reaches approximately 0.47 to 0.53. Take 100 μL of the E. coli W3110 cells and centrifuge for 2 min at 13,000 rpm. Discard the supernatant. For the untreated group, resuspend the cells in 100 μL of PBS. For the peptide treatment group, resuspend the cells in 99 μL of ddH2O and add 1 […]
μL of 0.5 mM of the different peptides. Mix thoroughly and let react for 15 min. After the treatment, take 80 μL of each sample and incubate with PI at a final concentration of 25 μg/mL for 15 min.
After incubation, wash the samples with the same amount of PBS, centrifuge, and resuspend at a 10-fold concentration. Observe the images using a Nikon Eclipse Ci-L Plus microscope. […]
Incubate overnight in a 37°C shaker. […]
Centrifuge again at
6100g for 10 min, discard the supernatant, and add 500 μL of ddH2O containing 2.5% glutaraldehyde. Resuspend and fix the cells overnight at 4°C. Centrifuge at 6100g for 10 min, remove the supernatant, and wash twice with ddH2O, letting it stand for 15 min each time, followed by centrifugation at 6100g for 10 min. Discard the supernatant. Dehydrate the sample with ethanol at concentration gradients of 30%, 60%, and 90%, without resuspension, centrifuging at 6100g for […]

E. coli W3110 [2] = experiment: Scanning electron microscopy of cell morphology; type: cell-based, Escherichia coli; conditions: E. coli W3110 logarithmic-phase, 4 h treatment at 2 μM and 5 μM (Fig. 5B, S11)
Experimental: Thaw the previously preserved E. coli W3110 cells from the -80 °C freezer. […]
Scanning electron microscopy
Thaw the previously preserved E. coli W3110 cells from the -80°C freezer. Scrape a small amount and inoculate it into 1 mL of LB liquid medium. Incubate overnight in a 37°C shaker. The next day, inoculate the strain into fresh LB liquid medium at a 1:100 ratio and incubate at 37°C until the OD600 reaches approximately 0.47 to 0.53. Take 500 μL of E. coli W3110 cells, centrifuge for 10 min at 4000 rpm, and discard the supernatant. Resuspend the cells in 500 μL of PBS, then centrifuge again at 4000 rpm for 10 min and discard the supernatant. Dissolve various macrocyclic peptides in DMSO and dilute to the required concentration. Resuspend the untreated group in 500 μL of PBS.
For the peptide treatment group, resuspend in 495 μL of ddH2O, add 5 μL of 0.2 mM or 0.5 mM peptides, mix well, and let react for 4 h.
After the treament, spot 4 μL of the sample on plates. Perform the first ten-fold dilution and mix, then continue with the second to fifth ten-fold dilutions. Incubate the plates inverted overnight in a 37°C incubator. Scan and count the colonies. For the remaining 492 μL, centrifuge at 6100g for 10 min, discard the supernatant, add 500 μL of ddH2O, and let it stand for 15 min. Centrifuge again at 6100g for 10 min, discard the supernatant, and add 500 μL of ddH2O containing 2.5% glutaraldehyde. Resuspend and fix the cells overnight at 4°C. Centrifuge at 6100g for 10 min, remove the supernatant, and wash twice with ddH2O, letting it stand for 15 min each time, followed by centrifugation at 6100g for 10 min. Discard the supernatant. Dehydrate the sample with ethanol at concentration gradients of 30%, 60%, and 90%, without resuspension, centrifuging at 6100g for […]
10 min and discarding the supernatant after each step. Finally, use 100% ethanol, rest for 15 min, centrifuge at 6100g for 10 min, discard the supernatant, and repeat with 100% ethanol, leaving about 10 μL. Then the critical point was dried and sprayed with gold, and the images were observed by […]
Prediction of binding sites between peptides and the BAM complex
Firstly, the fpocket algorithm was used, a rapid method for pocket prediction based on the three-dimensional structure of BAM complex (PDB ID: 5AYW). This method establishes a grid surrounding the protein, positioning alpha spheres on grid points devoid of spatial conflicts with protein atoms, subsequently utilizing a clustering algorithm to ascertain whether these regions constitute potential binding pockets. Alpha spheres were designated with radii ranging from 3.4Å to 6.2Å, with a prerequisite of at least 15 alpha spheres for a region to be considered a pocket. […]
PepNN evaluated each amino acid for its potentiality as a peptide binding site. […]

Gram-negative bacteria = conditions: cited from earlier work
From the text: Furthermore, conjugating the R9 peptide to antimicrobial peptides enhances antibacterial activity, particularly increasing effectiveness against Gram-negative bacteria.[49–51] ...

## nona-arginine [R9, reference compound]
E. coli W3110 [1]
  PI red fluorescence (cell membrane permeability): weak red fluorescence
E. coli W3110 [2]
  morphological changes by scanning electron microscopy: slight shrinkage and partial rupture
Gram-negative bacteria
  anti-Gram-negative bacterial activity: low anti-Gram-negative bacterial activity
